Here are results for eight molecules from PubChem BioAssay (NCI).

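1) Cells in 96-well plates. 2) Compound, 48 h, 5 concentrations. 3) Linear interpolation between surrounding doses. 4) Unreached endpoint = highest concentration. GI50: concentration for 50% inhibition of growth. At the TGI there is no net growth.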

Test in all cases: growth of human tumour cells (NCI), 48 h
Experiment [1] deals with EKVX NSCLC.
For experiment [2], the system named is SF-539 CNS.
For experiment [3], the system named is SW-620 colon.
Experiment [4] deals with KM12 colon.
For experiment [5], the system named is 786-0 renal.
The test system of experiment [6] is OVCAR-3 ovarian.
The subject of experiment [7] is NCI-H23 lung.
Experiment [8] deals with BT-549 breast.
The test system of experiment [9] is ACHN renal.
Experiment [10] concerns RPMI-8226 leukemia.

As for `O=C(Nc1ccc(Br)cc1F)c1cc(I)ccc1O`, the GI50 was 2250 nM in experiment [1]; 2800 nM in experiment [2]; 3.07 µM in experiment [3]; 2980 nM in experiment [4]; 3.32 µM in [5]; 3.06 µM in experiment [6]. In addition, the values for the GI50 in [7] and in [8] were 1900 nM and 2260 nM, respectively. In addition, the TGI in [1] was 28.6 µM; in [2] it was 12.1 µM; in experiment [3], 17.7 µM; in experiment [4], 9.14 µM; in experiment [5], 11.4 µM; in experiment [6], greater than 100 µM. Besides, the results for the TGI in [7] and in experiment [8] were 6.01 µM and 6.43 µM, respectively.
As for `CC1(C)CC(O)C(C)(C)[C@@H](O)C1` (stereo partly drawn), the TGI in experiment [1], in experiment [2], in experiment [3], in [4], in [9] and in [5] was greater than 100 µM throughout. Moreover, the TGI in experiment [7] and in experiment [8] was greater than 100 µM in each case.
As for `CCOC(=O)CCC(NC(=O)OCc1ccccc1)C(=O)NC(CCC(=O)OCC)C(=O)NC(CCC(=O)OCC)C(=O)NC(CCC(=O)OCC)C(=O)NC(CCC(=O)OCC)C(=O)NC(CCC(=O)OCC)C(=O)NC(CCC(=O)OCC)C(=O)OCC` (stereo not drawn), the TGI in experiment [3], in experiment [9], in experiment [10], in [5], in [6] and in experiment [7] was greater than 100 µM in each case. This molecule also had a TGI in [8] greater than 100 µM.
In the case of `O=C1c2cc3c(cc2[C@@H]2[C@H]1c1ccc([N+](=O)[O-])cc1C(=O)N2CCCBr)OCO3`, the GI50 in experiment [1] is 37.9 nM; in [2], less than 10 nM; in experiment [3] it was less than 0.01 µM; in experiment [4] it was 43.7 nM; in experiment [9] it was less than 0.01 µM; in experiment [5], less than 0.01 µM. The GI50 in experiment [6] was less than 0.037 µM; in experiment [7] it was less than 10 nM; in experiment [8] it was less than 10 nM. Also, the TGI in experiment [1] is 0.501 µM; in experiment [2], less than 0.01 µM; in experiment [3] it was 3.64 µM; in experiment [4], 3.95 µM; in experiment [9], less than 0.01 µM; in experiment [5] it was less than 0.01 µM. Besides, the results for the TGI in experiment [7] and in [8] were 0.0775 µM and 0.411 µM, respectively.
As for `CC(=O)[CH-]C(=O)c1ccccc1.CC(=O)[CH-]C(=O)c1ccccc1.CC[O-].CC[O-].[Hf+4]`, the GI50 in experiment [1] is 38200 nM; in experiment [2], greater than 100000 nM; in experiment [3] it was greater than 100 µM; in [4], greater than 100000 nM; in experiment [9] it was greater than 100 µM; in experiment [10] it was greater than 100 µM. In addition, the GI50 is greater than 100 µM in experiment [5], greater than 100 µM in [6] and greater than 100000 nM in experiment [7]. Besides, the TGI in experiment [1], in experiment [2], in experiment [3], in experiment [4], in experiment [9] and in experiment [10] was greater than 100 µM each time. Also, the TGI in [5], in [6] and in [7] was greater than 100 µM in each case.
Consider `O=S(=O)(/C=C/c1ccc(F)cc1)Cc1ccc(CS(=O)(=O)/C=C/c2ccc(F)cc2)cc1`, for which the TGI in [1], in experiment [2], in experiment [3], in experiment [4], in [9] and in [10] was greater than 100 µM throughout. For the same molecule, the TGI in [5], in [6] and in [7] was greater than 100 µM throughout.
`COc1ccc(/C=C/c2cc(OC)c(OC)c(OC)c2)cc1`: the TGI in experiment [1] was greater than 100 µM; in experiment [2] it was 13.6 µM; in [3], greater than 100 µM; in experiment [4], greater than 100 µM; in experiment [9], greater than 100 µM; in experiment [10], 12.3 µM. Further, the results for the TGI in experiment [5], in experiment [6] and in experiment [7] were greater than 100 µM, 17.7 µM and greater than 81.5 µM, respectively.
For `N/N=C(/C(=O)Nc1cccc(Cl)c1)C(C(=O)c1ccc(O)cc1O)C1OC(=O)c2ccccc21` (stereo not drawn), the TGI in experiment [1], in experiment [2], in experiment [3], in [4], in experiment [9] and in experiment [10] was greater than 100 µM in each case. Besides, the TGI in experiment [5], in [6] and in experiment [7] was greater than 100 µM each time.
